Columns and labels:
women = details: compared to non-treated women of the same age, the estrogen-alone figure is for women with prior hysterectomy; cited from earlier work
female rats [1] = assay: Tear breakup time (TBUT), Fluress and slit lamp; assay type: in vivo, Sprague-Dawley rats
Method: (§1) Female rats of 9 months of age were ovariectomized and immediately supplemented with 1.5 mg of 17β-estradiol in three, separate 90-day time release pellets until 18 months. Three experimental groups were used with ovaries excised from rats in treatment […] (FIG. 1). Group 1 underwent a sham ovariectomy and was implanted with placebo pellet, Group 2 underwent an ovariectomy and was implanted with placebo pellet, and Group 3 underwent an ovariectomy and was implanted with E2 pellet. The three groups had tear breakup time and tear volume tested. […] The time lapse between the last blink and the first randomly distributed dry spot on the cornea using a portable slit lamp was recorded. The process was repeated 3 times for each subject and the results recorded (FIG. 2). […] Rats received 0.5 uL Fluress onto the eye, then the eye was manually blinked 3 times, and the modified Schirmer's strip was placed in the upper fornix for 5 minutes for assessment of tear volume and the volume was recorded (FIG. 3).
(§2) Female Sprague-Dawley rats, age 15 months, were subcutaneously implanted with placebo pellets and E2 rats received pellets containing 1.5 mg of 17β-estradiol in a 90-day time-release matrix. […] Serum E2 levels were measured from blood collected prior to randomization to treatment groups and again at time of euthanasia. […]

female rats [2] = assay: Tear volume, modified Schirmer's test; assay type: in vivo, Sprague-Dawley rats
Method: as §1, §2

Serum E2 levels = assay type: in vivo, Sprague-Dawley rats; details: Example 2: rats at 18 months after 1.5 mg 90-day pellet implanted at 15 months; compared to Intact (placebo) rats
Method: Female Sprague-Dawley rats, age 15 months, were subcutaneously implanted with placebo pellets and E2 rats received pellets containing 1.5 mg of 17β-estradiol in a 90-day time-release matrix. Both groups received treatment until they reached 18 months of age. Serum E2 levels were measured from blood collected prior to randomization to treatment groups and again at time of euthanasia. […] Serum E2 levels of rats prior to randomization at 15 months of age (Pre) and two weeks before gland excision, at 18 months of age (Post). […] Also, Tear Volume Assessment and Tear Break-up Time both have been examined in the rats. […] TBUT was also altered by estrogen treatment with E2 rats having a significant reduction in time to first tear disruption compared to Intact rats (16.4±1.1 sec and 33.7±1.9 sec, respectively; p<0.001) (FIG. 5). Tear volume was measured in 18 month old female rats during 3 months of E2 or placebo supplementation. […] (B) Tear break up time was also measured in rats receiving placebo or E2 treatment using fluorescein sodium (0.25%).

[3] = Example 1: rats ovariectomized at 9 months, 1.5 mg 17β-estradiol 90-day pellets until 18 months, compared to control groups 1 and 2
[4] = Example 2: post-menopausal rats at 18 months, 3 months of E2 supplementation, p<0.001 vs Intact rats

Row | Compound | increase of KCS (women) | tear break up time (female rats [1]; [3]) | TBUT, time to first tear disruption (female rats [1]; [4]) | tear volume (female rats [2]; [3]) | tear volume (female rats [2]; [4]) | serum E2 levels (Serum E2 levels)
1 | estrogen | ~70% |  |  |  |  | 
2 | C[C@]12CC[C@@H]3c4ccc(O)cc4CC[C@H]3[C@@H]1CC[C@@H]2O [E2, 17β-estradiol] |  | shorter tear break up time | 16.4 ± 1.1 s | reduced tear volume | 7.4±0.58 mm | significantly elevated
